Source: US12202801B1 (priority 2023, dated 2025)

Experiments:
[1] = system: Mycobacterium tuberculosis multidrug-resistant (MDR) strain; experiment: microbe, parasite or virus in culture; type: cell-based; details: 192 h, read-out: Anti-tubercular activity against Mycobacterium tuberculosis (MIC), MDR
[2] = system: Mycobacterium tuberculosis extensively drug-resistant (XDR) strain; experiment: microbe, parasite or virus in culture; type: cell-based; details: 192 h, read-out: Anti-tubercular activity against Mycobacterium tuberculosis (MIC), XDR

Compound: N#Cc1ccc(C(=O)C[n+]2ccc(C#N)cc2)cc1.[Br-] [Compound 3f, 4-Cyano-1-(2-(4-cyanophenyl)-2-oxoethyl)pyridin-1-ium bromide]
- MIC [1]: 4 µg/mL
- MIC [2]: 32 µg/mL
